Earlier results in US20240093147A1, “GLIA-LIKE CELLS DIFFERENATIATED FROM SOMATIC CELLS, PREPARATION METHOD THEREFOR, COCKTAIL COMPOSITION FOR PREPARING SAME, CELL THERAPEUTIC AGENT FOR PREVENTING OR TREATING NEUROLOGICAL DISORDERS, COMPRISING SAME, AND METHOD FOR PREVENTING AND TREATING NEUROLOGICAL DISORDERS BY ADMINISTERING SAME” (CELLAPEUTICS BIO, priority 2019, published 2024).

Legend:
HDAC = conditions: valproic acid, HDAC inhibitor
[1] = forskolin, cAMP agonist

| Compound | IC50 (HDAC) [µM] | IC50 [1] [µM] |
| --- | --- | --- |
| CCCC(CCC)C(=O)O [Valproic Acid, valproic acid] | 2000 |  |
| C=C[C@@]1(C)CC(=O)[C@]2(O)[C@@]3(C)[C@@H](O)CCC(C)(C)[C@@H]3[C@H](O)[C@H](OC(C)=O)[C@@]2(C)O1 [Forskolin, forskolin] |  | 0.5 |
